The source of these data is PubChem BioAssay (NCI).

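Assay format: 96-well plates, 48-hour exposure. At the GI50, growth is halved. The concentration for full growth arrest is given as TGI.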 Bounds are passed on as bounds.

In one assay the test system is SF-295 CNS. As to the kind of experiment: growth of human tumour cells (NCI), 48 h.
Regarding `CC1C=C(OC(=O)c2ccccc2)C(=O)C(n2cc(F)c(=O)[nH]c2=O)O1` (stereo unspecified), the TGI was > 100 µM.
For `COc1cc(OC(C)=O)cc2c(OC(C)=O)ccc(OC(C)=O)c12`, the TGI is > 100 µM.
Turning to `Nc1ccccc1C#C/C=C\C#Cc1cccs1`, the GI50 is 11.3 µM and the TGI was found to be 46.1 µM.
Take `COc1ccc(-c2ccc(/C=N/n3c(COc4ccc(Cl)cc4Cl)nn(CN4CCOCC4)c3=S)o2)c([N+](=O)[O-])c1`: the GI50 was 17.4 µM and the TGI stood at 46.9 µM.
`O=C(O)/C=C\C(=O)N1C/C(=C\c2ccccc2Cl)C(=O)/C(=C/c2ccccc2Cl)C1`: the GI50 was 4.4 µM and the TGI amounted to 16.5 µM.
With `COc1ccc(OC)c(/C=C2\SC(=S)NC2=O)c1`, the GI50 is 42.8 µM and the TGI is > 100 µM.
For `COc1cc2c(c(OC)c1)C1c3ccccc3NC(=O)N1CC2` (stereo unspecified), the GI50 is 2.63 µM and the TGI amounted to 9.14 µM.

Another assay concerns SF-539 CNS. As to the kind of experiment: growth of human tumour cells (NCI), 48 h.
`COc1ccc2nc(-c3cccs3)cc(C(O)CN3CCSCC3)c2c1` (stereo unspecified) had a TGI of 51.3 µM.
On the same count and under the same terms, then `O=C(CN1CCOCC1)Nc1nc(-c2ccc(Cl)cc2)cs1`, with > 100 µM; and `CC1=C(Oc2ccccc2)C(CCC(=O)O)c2c(O)cc(Cl)c(O)c21` (stereo unspecified), with > 100 µM.
On the same count and under the same terms, then `CC(C)[C@H]1CO[C@]2(C)[C@@H]3CN(Cc4ccccc4)C[C@@H]3C(=O)N12`, with > 100 µM; and `CC1=Nc2ccccc2S/C1=C(/C)NNC(=O)C(N)=O`, with > 100 µM.
For `CSc1ccc(C2OC(=O)c3ccccc32)c2ccccc12` (stereo unspecified), the TGI is > 100 µM.
Take `C#CCOCn1cnc2c(Cl)ncnc21`: the TGI is > 100 µM.
On to `Oc1cccc2ccc(N/N=C/c3cc(CN4CCCCC4)c(O)c4ncccc34)nc12`, for which the GI50 is 0.0481 µM and the TGI is 2.68 µM.
Consider `COc1ccc(-c2n/c(=C\c3c(O)[nH]c4ccc(OC)cc34)cc3c2=Nc2ccccc2-3)cc1`, for which the GI50 was 1.85 µM and the TGI amounted to 3.4 µM.
With `CC1SC2=NC3=C(c4ccccc4C3=O)C(c3ccc(F)cc3)N2C1=O` (stereo unspecified), the TGI is > 100 µM.
For `CC(=O)OCC1OC(OC2C(CSC3OC(COC(C)=O)C(OC(C)=O)C(OC(C)=O)C3OC(C)=O)OC(OC(C)=O)C(OC(C)=O)C2OC(C)=O)C(OC(C)=O)C(OC(C)=O)C1OC(C)=O` (stereo unspecified), the TGI is > 100 µM.
As to `CC1C=C(OC(=O)c2ccccc2)C(=O)C(n2cc(F)c(=O)[nH]c2=O)O1` (stereo unspecified), the TGI is > 100 µM.
For `Nc1ccccc1C#C/C=C\C#Cc1cccs1`, the GI50 is 5.6 µM and the TGI is 17.8 µM.
Turning to `COc1ccc(-c2ccc(/C=N/n3c(COc4ccc(Cl)cc4Cl)nn(CN4CCOCC4)c3=S)o2)c([N+](=O)[O-])c1`, the GI50 was 18.8 µM and the TGI is 62.9 µM.
For the molecule `O=C(O)/C=C\C(=O)N1C/C(=C\c2ccccc2Cl)C(=O)/C(=C/c2ccccc2Cl)C1`, the GI50 is 3.01 µM and the TGI amounted to 8.24 µM.
Take `COc1ccc(OC)c(/C=C2\SC(=S)NC2=O)c1`: the GI50 is 17.4 µM and the TGI stood at 49.6 µM.
Take `COc1cc2c(c(OC)c1)C1c3ccccc3NC(=O)N1CC2` (stereo unspecified): the GI50 is 1.7 µM and the TGI was 7.26 µM.

The next assay has as its system SK-OV-3 ovarian. As to the kind of experiment: growth of human tumour cells (NCI), 48 h.
With `COC(=O)C(=O)C1(CCC(C)=O)c2ccccc2-c2c(C)ccc(C)c21` (stereo unspecified), the TGI is > 100 µM.
For `O=C(/C=C/c1ccccc1)c1cc(Br)ccc1O`, the TGI was 38.1 µM.
Turning to `COc1ccc2nc(-c3cccs3)cc(C(O)CN3CCSCC3)c2c1` (stereo unspecified), the TGI was > 100 µM.
Take `O=C(CN1CCOCC1)Nc1nc(-c2ccc(Cl)cc2)cs1`: the TGI was > 100 µM.
Regarding `CC(C)[C@H]1CO[C@]2(C)[C@@H]3CN(Cc4ccccc4)C[C@@H]3C(=O)N12`, the TGI is > 100 µM.
With `CC1=Nc2ccccc2S/C1=C(/C)NNC(=O)C(N)=O`, the TGI was > 100 µM.
Turning to `COc1ccc2c(c1)/C(=C\c1c(C)nc3sccn13)C(=O)N2`, the TGI was > 38.3 µM.
In the case of `CSc1ccc(C2OC(=O)c3ccccc32)c2ccccc12` (stereo unspecified), the TGI is > 100 µM.
Take `C#CCOCn1cnc2c(Cl)ncnc21`: the TGI is > 100 µM.
As to `Oc1cccc2ccc(N/N=C/c3cc(CN4CCCCC4)c(O)c4ncccc34)nc12`, the GI50 is 0.0435 µM and the TGI was found to be 0.653 µM.
Turning to `COc1ccc(-c2n/c(=C\c3c(O)[nH]c4ccc(OC)cc34)cc3c2=Nc2ccccc2-3)cc1`, the GI50 was 22.5 µM and the TGI amounted to 46.6 µM.
For the molecule `CC1SC2=NC3=C(c4ccccc4C3=O)C(c3ccc(F)cc3)N2C1=O` (stereo unspecified), the TGI was > 100 µM.
In the case of `CC(=O)OCC1OC(OC2C(CSC3OC(COC(C)=O)C(OC(C)=O)C(OC(C)=O)C3OC(C)=O)OC(OC(C)=O)C(OC(C)=O)C2OC(C)=O)C(OC(C)=O)C(OC(C)=O)C1OC(C)=O` (stereo unspecified), the TGI is > 100 µM.
As to `CCCCCCCCN=C(N)c1ccc(N2CCN(c3ccc(C(N)=NCCCCCCCC)cc3)CC2)cc1`, the GI50 is 1.76 µM and the TGI stood at 10.2 µM.
For the molecule `CCCCC(CC)CN=C(N)NC(N)=NCCCCCCN=C(N)NC(N)=NCC(CC)CCCC` (stereo unspecified), the GI50 was 2.64 µM and the TGI came to 6.86 µM.
On to `CC1C=C(OC(=O)c2ccccc2)C(=O)C(n2cc(F)c(=O)[nH]c2=O)O1` (stereo unspecified), for which the TGI was > 100 µM.
For `Nc1ccccc1C#C/C=C\C#Cc1cccs1`, the GI50 was 26.5 µM and the TGI was > 52.3 µM.
Consider `COc1ccc(-c2ccc(/C=N/n3c(COc4ccc(Cl)cc4Cl)nn(CN4CCOCC4)c3=S)o2)c([N+](=O)[O-])c1`, for which the GI50 is 10.8 µM and the TGI came out at 52.1 µM.
Turning to `O=C(O)/C=C\C(=O)N1C/C(=C\c2ccccc2Cl)C(=O)/C(=C/c2ccccc2Cl)C1`, the GI50 was 4.74 µM and the TGI was found to be 15.2 µM.
Regarding `COc1ccc(OC)c(/C=C2\SC(=S)NC2=O)c1`, the GI50 is 33.1 µM and the TGI was > 100 µM.
Taken in the same sequence, the figures for `COc1cc2c(c(OC)c1)C1c3ccccc3NC(=O)N1CC2` (stereo unspecified) were 3.67 µM and > 100 µM.
